Assay results as given in ChEMBL document CHEMBL5338791, “Discovery of Novel 1,3-Diphenylpyrazine Derivatives as Potent S-Phase Kinase-Associated Protein 2 (Skp2) Inhibitors for the Treatment of Cancer” (J Med Chem, 2023).
Calls of active or inactive are those of the source. The rule behind the calls is not given here.

Columns and labels:
[1] = test system: MGC-803; assay: Antitumor activity against human MGC-803 cells assessed as cell growth inhibition incubated for 72 hrs by MTT assay; type: functional, cell-based; details: MGC-803, 72 h
[2] = test system: PC-3; assay: Antitumor activity against human PC-3 cells assessed as cell growth inhibition incubated for 72 hrs by MTT assay; type: functional, cell-based; details: PC-3, 72 h
[3] = test system: A2780; assay: Antitumor activity against human A2780 cells with low Skp2 expression assessed as cell growth inhibition incubated for 72 hrs by MTT assay; type: functional, cell-based; details: A2780, 72 h
[4] = test system: PC-3; assay: Upregulation of p21 level in human PC-3 cells at 10 uM incubated upto 48 hrs by Western blot analysis; type: functional, cell-based
[5] = test system: MGC-803; assay: Upregulation of p21 level in human MGC-803 cells at 10 uM incubated upto 48 hrs by Western blot analysis; type: functional, cell-based
[6] = test system: MGC-803; assay: Upregulation of p27 level in human MGC-803 cells at 10 uM incubated upto 48 hrs by Western blot analysis; type: functional, cell-based
[7] = test system: PC-3; assay: Inhibition of colony formation in human PC-3 cells at 0.5 to 2 uM incubated for 10 days by crystal violet staining based microscopy; type: functional, cell-based; details: dose 0.5-2 µM, time 10.0 day
[8] = test system: MGC-803; assay: Inhibition of cell migration in human MGC-803 cells by transwell invasion assay; type: functional, cell-based; details: dose <= 2.0 µM
[9] = test system: PC-3; assay: Induction of cell cycle arrest in human PC-3 cells assessed as accumulation of cells at G2 phase at 2.5 uM incubated for 48 hrs by flow cytometry (reference value: 22.59 %); type: functional
[10] = test system: PC-3; assay: Induction of cell cycle arrest in human PC-3 cells assessed as accumulation of cells at S phase at 10 uM incubated for 48 hrs by flow cytometry (reference value: 22.44 %); type: functional
[11] = test system: PC-3; assay: Induction of cell cycle arrest in human PC-3 cells assessed as accumulation of cells at G2 phase at 10 uM incubated for 48 hrs by flow cytometry (reference value: 22.59 %); type: functional
[12] = test system: MGC-803; assay: Induction of cell cycle arrest in human MGC-803 cells assessed as accumulation of cells at G1 phase at 5 uM incubated for 48 hrs by flow cytometry (reference value: 54.46 %); type: functional
[13] = test system: MGC-803; assay: Induction of cell cycle arrest in human MGC-803 cells assessed as accumulation of cells at S phase at 5 uM incubated for 48 hrs by flow cytometry (reference value: 22.72 %); type: functional
[14] = test system: MGC-803; assay: Induction of cell cycle arrest in human MGC-803 cells assessed as accumulation of cells at G2 phase at 10 uM incubated for 48 hrs by flow cytometry (reference value: 21.35 %); type: functional
[15] = test system: PC-3; assay: Induction of cell cycle arrest in human PC-3 cells assessed as accumulation of cells at G2 phase at 10 uM incubated for 24 hrs by flow cytometry (reference value: 19.34 %); type: functional
[16] = test system: PC-3; assay: Induction of cell cycle arrest in human PC-3 cells assessed as accumulation of cells at G2 phase at 10 uM incubated for 48 hrs by flow cytometry (reference value: 19.34 %); type: functional
[17] = test system: MGC-803; assay: Induction of cell cycle arrest in human MGC-803 cells assessed as accumulation of cells at G1 phase at 10 uM incubated for 12 hrs by flow cytometry (reference value: 57.09 %); type: functional
[18] = test system: MGC-803; assay: Induction of cell cycle arrest in human MGC-803 cells assessed as accumulation of cells at S phase at 10 uM incubated for 12 hrs by flow cytometry (reference value: 20.41 %); type: functional
[19] = test system: MGC-803; assay: Induction of cell cycle arrest in human MGC-803 cells assessed as accumulation of cells at G2 phase at 10 uM incubated for 24 hrs by flow cytometry (reference value: 20.64 %); type: functional
[20] = test system: MGC-803; assay: Induction of cell cycle arrest in human MGC-803 cells assessed as accumulation of cells at G1 phase at 10 uM incubated for 48 hrs by flow cytometry (reference value: 57.09 %); type: functional
[21] = test system: PC-3; assay: Induction of apoptosis in human PC-3 cells assessed as nuclear fragmentation incubated for 48 hrs; type: functional, cell-based; details: dose <= 10.0 µM
[22] = test system: PC-3; assay: Induction of apoptosis in human PC-3 cells assessed as nuclear condensation incubated for 48 hrs; type: functional, cell-based; details: dose <= 10.0 µM
[23] = test system: PC-3; assay: Induction of apoptosis in human PC-3 cells assessed as late apoptotic cells at 2.5 uM incubated for 48 hrs by annexin V-FITC/PI staining based flow cytometry (reference value: 0.45 %); type: functional
[24] = test system: PC-3; assay: Induction of apoptosis in human PC-3 cells assessed as viable cells at 5 uM incubated for 48 hrs by annexin V-FITC/PI staining based flow cytometry (reference value: 98.6 %); type: functional; details: read-out: Activity
[25] = test system: MGC-803; assay: Induction of apoptosis in human MGC-803 cells assessed as viable cells at 5 uM incubated for 48 hrs by annexin V-FITC/PI staining based flow cytometry (reference value: 98 %); type: functional; details: read-out: Activity
[26] = test system: MGC-803; assay: Induction of apoptosis in human MGC-803 cells assessed as necrotic cells at 5 uM incubated for 48 hrs by annexin V-FITC/PI staining based flow cytometry (reference value: 0.89 %); type: functional
[27] = Toxicity in NOD-SCID mouse model xenografted with human PC-3 cells assessed as drug tolerance at 10 to 50 mg/kg, IG administered once every 2 days for 21 days; type: organism-based; details: in vivo, po, 504 h, dose 10-50 mg/kg, time 21 day
[28] = test system: PC-3; assay: Antitumor activity against human PC-3 cells xenografted in NOD-SCID mouse model assessed as downregulation of Skp2 expression at 10 to 50 mg/kg, IG administered once every 2 days for 21 days by Western blot analysis; type: functional, organism-based; details: dose 10-50 mg/kg, time 21.0 day
[29] = test system: PC-3; assay: Antitumor activity against human PC-3 cells xenografted in NOD-SCID mouse model assessed as increase in apoptosis in tumor tissue at 10 to 50 mg/kg, IG administered once every 2 days for 21 days by TUNEL staining based analysis; type: functional, organism-based; details: dose 10-50 mg/kg, time 21.0 day
[30] = test system: MGC-803; assay: Antitumor activity against human MGC-803 cells xenografted in NOD-SCID mouse model assessed as downregulation of Skp2 expression at 10 to 50 mg/kg, IG administered once every 2 days for 21 days by Western blot analysis; type: functional, organism-based; details: dose 10-50 mg/kg, time 21.0 day
[31] = test system: MGC-803; assay: Antitumor activity against human MGC-803 cells xenografted in NOD-SCID mouse model assessed as p21 accumulation at 10 to 50 mg/kg, IG administered once every 2 days for 21 days by Western blot analysis; type: functional, organism-based; details: dose 10-50 mg/kg, time 21.0 day
[32] = Metabolic stability in rat liver S9 fraction assessed as half life at 20 umol/L preincubated for 5 mins followed by NADPH addition measured upto 60 mins by LC-MS/MS analysis; type: ADME, subcellular; details: dose 20 µmol/L, time < 65 min
[33] = Metabolic stability in mouse liver S9 fraction assessed as half life at 20 umol/L preincubated for 5 mins followed by NADPH addition measured upto 60 mins by LC-MS/MS analysis; type: ADME, subcellular; details: dose 20 µmol/L, time < 65 min
[34] = Biodistribution in tumor of NOD-SCID mouse model xenografted with human PC-3 cells at 25 mg/kg, IG measured for 48 hrs by LC-MS/MS analysis; type: ADME, organism-based, Neoplasm; details: in vivo, po
[35] = Cmax in plasma of NOD-SCID mouse model xenografted with human PC-3 cells at 25 mg/kg, IG measured upto 48 hrs by LC-MS/MS analysis; type: ADME, organism-based; set-up: time < 48 hrs, dose 25 mg/kg, route ig; details: po
[36] = MRTlast in tumor of NOD-SCID mouse model xenografted with human PC-3 cells at 25 mg/kg, IG measured upto 48 hrs by LC-MS/MS analysis; type: ADME, organism-based, Neoplasm; details: po

`O=C(CCl)NC1CCN(c2cnc(-c3ccccc3)c(-c3ccccc3)n2)CC1` gave an IC50 [1] of 7 µM, an IC50 [2] of 4.8 µM and an IC50 [3] of 14.3 µM. For the same compound, the Activity [4] was “Active”, the Activity [5] was “Active” and the Activity [6] was “Active”. The inhibition [7] was “Active”, the inhibition [8] was “Dose-Dependent Effect” and the Activity [9] was 18.47%. The Activity [10] was 43.58%, the Activity [11] was 16.41% and the Activity [12] was 45.12%. For the same compound, the Activity [13] was 35.78%, the Activity [14] was 14.35% and the Activity [15] was 15.19%. It also gave an Activity [16] of 16.14%, an Activity [17] of 46.55% and an Activity [18] of 31.88%. The Activity [19] was 17.72%, the Activity [20] was 35.53% and the Activity [21] was “Dose-Dependent Effect”. The Activity [22] was “Dose-Dependent Effect”, the Activity [23] was 4.97% and the viability at 5 µM [24] was 82.5%. For the same compound, the viability at 5 µM [25] was 82.9%, the Activity [26] was 1.27% and the Activity [27] was “Non-Toxic”. For the same compound, the Activity [28] was “Active”, the Activity [29] was “Active” and the Activity [30] was “Active”. For the same compound, the Activity [31] was “Active”, the half-life at 20 µM [32] was 15.4 min and the half-life at 20 µM [33] was 16.5 min. The Drug uptake [34] was “Active”, the Cmax [35] was 176 ng/mL and the MRT last at 48 h [36] was 594 min.
